# Assays:
# [1] = biological target: T1, ACAT in J774 cells (Mus musculus, UniProt Q61263); experiment: inhibitory activity against ACAT using J774 cells; format: cell-based; conditions: 100 nM of each compound, mean ± S.D., n = 3, 4 hours at 37° C., vs DMSO control, read-out: Inhibition rate against ACAT activity in J774 cells (%)
# T1 construct: endogenous in cells; host or cells: J774 cells (mouse macrophage-like)
# T1 sequence (Q61263 1-540): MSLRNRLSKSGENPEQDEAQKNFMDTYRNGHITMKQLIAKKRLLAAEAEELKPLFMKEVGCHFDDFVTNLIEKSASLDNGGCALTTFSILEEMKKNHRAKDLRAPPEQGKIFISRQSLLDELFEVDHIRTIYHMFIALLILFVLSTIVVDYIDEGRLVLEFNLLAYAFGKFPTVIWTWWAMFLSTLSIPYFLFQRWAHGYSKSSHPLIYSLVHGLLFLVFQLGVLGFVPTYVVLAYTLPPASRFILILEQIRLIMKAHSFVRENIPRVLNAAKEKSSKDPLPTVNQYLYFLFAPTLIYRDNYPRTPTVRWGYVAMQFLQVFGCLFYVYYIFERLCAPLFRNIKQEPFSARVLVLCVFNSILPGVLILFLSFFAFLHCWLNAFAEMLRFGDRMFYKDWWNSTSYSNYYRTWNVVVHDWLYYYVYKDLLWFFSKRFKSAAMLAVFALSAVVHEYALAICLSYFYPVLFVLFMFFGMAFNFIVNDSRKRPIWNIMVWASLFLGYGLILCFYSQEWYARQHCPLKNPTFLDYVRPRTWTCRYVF
# Experimental: i) Test for inhibitory activity against ACAT using J774 cells:
# The ACAT activity of J774 cells was measured as the radioactivity of cholesteryl oleate produced from [^14 C]oleic acid and cholesterol which were added to a culture solution.
# Added to the cells were [^14 C]oleic acid, delipidized BAS (bovine serum albumin), […] (0.3M glucose solution containing cholesterol and phosphatidylcholine at a weight ratio of 2:1) and 25-hydroxycholesterol to culture the cells for 4 hours at 37° C. under 5% CO2. After the culturing, the cultured cells were disrupted with a 1% SDS (sodium lauryl sulfate) solution, and the lipid in the disrupted solution was extracted with hexane. The extract was dried to solid under reduced pressure. After the resultant residue was then developed (developing solvent: diethyl ether/hexane/acetic acid=80/20/1) by TLC (thin-layer chromatography), the amount of cholesteryl oleate formed was determined by an imaging plate.
# [2] = biological target: T2, ACAT of rat liver microsome (Rattus norvegicus, UniProt Q7TQM4); experiment: inhibitory activity against ACAT using rat liver microsome; format: biochemical; conditions: 5 min; 100 nM of each compound; Mean + S.D.; n = 3; 37° C. for 5 minutes; vs DMSO control; read-out: Inhibition rate against ACAT activity in rat liver microsome (%)
# T2 construct: from tissue; host or cells: rat liver microsomes
# T2 sequence (Q7TQM4 1-524): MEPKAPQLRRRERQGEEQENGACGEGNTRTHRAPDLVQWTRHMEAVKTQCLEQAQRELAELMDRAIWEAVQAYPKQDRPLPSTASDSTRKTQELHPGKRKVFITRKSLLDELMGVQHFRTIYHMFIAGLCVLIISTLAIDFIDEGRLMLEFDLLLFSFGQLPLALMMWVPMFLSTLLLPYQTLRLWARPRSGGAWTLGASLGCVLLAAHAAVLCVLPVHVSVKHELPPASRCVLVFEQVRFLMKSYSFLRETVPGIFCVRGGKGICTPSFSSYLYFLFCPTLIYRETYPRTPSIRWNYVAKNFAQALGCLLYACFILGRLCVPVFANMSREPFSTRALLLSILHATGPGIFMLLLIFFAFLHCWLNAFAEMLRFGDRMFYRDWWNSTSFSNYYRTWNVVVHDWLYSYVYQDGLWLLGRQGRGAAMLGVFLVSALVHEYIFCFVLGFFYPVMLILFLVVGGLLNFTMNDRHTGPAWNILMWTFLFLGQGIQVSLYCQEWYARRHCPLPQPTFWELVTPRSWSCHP
# Experimental: - ii) Test for inhibitory activity against ACAT using rat liver microsome
# The ACAT activity of rat liver microsome was measured as the radioactivity of cholesteryl oleate produced from [^14 C]oleoyl-CoA and endogenous cholesterol.
# More specifically, [^14 C]oleoyl-CoA and delipidized BSA were added to a rat liver microsome fraction prepared in accordance with a method known per se in the art to conduct a reaction at 37° C. for 5 minutes. After the reaction, the lipid in the reaction mixture was extracted with hexane, and the extract was dried to solid under reduced pressure. After the resultant residue was then developed (developing solvent: diethyl ether/hexane/acetic acid 80/20/1) by TLC, the amount of cholesteryl oleate formed was determined by an imaging plate.
Compound,inhibition at 0.1 µM [1],inhibition at 0.1 µM [2]
COc1ccc(C(=CNC(=O)Nc2c(C(C)C)cccc2C(C)C)c2ccc(OC)cc2)cc1 [Compound 3],77.8 ± 4%,7.87 ± 9.26%
Cc1cc2ncc(NC(=O)Nc3ccc(F)cc3F)c(-c3ccccc3Cl)c2cc1C [TMP-153],36.9 ± 11.9%,82.3 ± 2.79%
